One data set relates to maximal electroshock. In words: Anticonvulsant effectiveness against maximal electroshock, mice. Format: in vivo, mice (Charles River strain). Particulars: for Time of peak activity: mice, oral, maximal electroshock. The procedure: (§1) All tests, with the exceptions noted, were conducted on adult albino male mice (Charles River strain); the dosage consisted of the active agent suspended in 10% aqueous acacia and was administered orally unless otherwise indicated.
Anticonvulsant effectiveness of each agent against maximal electroshock was determined at the time of peak effect. The time of peak anticonvulsant activity was determined by administering dosages of various sizes to a group of animals and administering a maximal electroshock to the animals at intervals thereafter by supplying 60 ma. current through a corneal electrode for 0.2 second. […] The time of peak effect thus determined was used for all subsequent tests of anticonvulsant activity on the same active agent.
(Protection in the maximal electroshock model is a classic sign of anticonvulsant action.)

The next data set deals with Metrazol. In words: Anticonvulsant effectiveness against convulsive dose of Metrazol, mice. The format is in vivo, mice (Charles River strain). The settings on record: oral. The procedure: as §1
Anticonvulsant effectiveness was determined against a convulsive dose of Metrazol (106.25 mg/kg) injected subcutaneously; the criterior for effectiveness was failure to show clonic convulsive seizures. Anticonvulsant activity was determined against a lethal dose of strychnine sulfate (1.5 mg/kg) injected subcutaneously; the criterion was failure to die, even though seizures appeared.

For data set [1] the following is noted: literature / prior knowledge; cited from earlier work.
The subject of the next data set is central nervous system. In words: Hypnotic activity: loss of the righting reflex (onset of sleep). The format is in vivo, mice (Charles River strain). Particulars: any dosage less than a lethal dose for the compounds of the invention. The procedure: as §1
The conditions of data set [2]: prior knowledge; cited from earlier work.

For the compound `COCN1C(=O)NC(c2ccccc2)(c2ccccc2)C1=O` [Example 2, 3-methoxymethyl-5,5-diphenylhydantoin], the “Onset of anticonvulsant activity (maximal electroshock) after ingestion” value in the data set on maximal electroshock (after ingestion) is on record as “less than 0.5 hour”.

As to `CCCCCCCCCCCCOCN1C(=O)N(COCCCCCCCCCCCC)C(=O)C(CC)(CC)C1=O` [Example 10, 1,3-di-n-dodecyloxymethyl-5,5-diethyl barbituric acid], the “Time of peak activity (in words)” value in the data set on Metrazol is on record as “about one hour”.

As to `CCC1(c2ccccc2)C(=O)N(COC)C(=O)N(COC)C1=O` [Example 1, 1,3-dimethoxymethyl-5-ethyl-5-phenyl barbituric acid], the “Hypnotic activity, known or reported” value in data set [1] was “without effect”. Further, in the data set on maximal electroshock (0.1 millimole/kg), the “Duration of anticonvulsant effect against maximal electroshock (in words)” value is given as “protection continued at about the same level for more than eight hours” and the “Onset of protection against maximal electroshock (in words)” value is reported as “only after two hours”. Also, the “Time of peak activity” value in the data set with maximal electroshock was 2 h. Further, the “Change in ED50 to protect against maximal electroshock on repeated daily dosage” value in the data set with maximal electroshock (repeated daily dosage of same animals for four days) was “no significant change”.

Regarding `CCC1(c2ccccc2)C(=O)NC(=O)NC1=O` [Phenobarbital, phenobarbital], the “Hypnotic activity (loss of the righting reflex)” value with central nervous system was “did exhibit hypnotic activity”. The “Hypnotic activity, known or reported” value in data set [1] was “exhibits hypnotic activity”.

In the case of `CCCCCCCCCCCCOCN1C(=O)N(COCCCCCCCCCCCC)C(=O)C(CC)(c2ccccc2)C1=O` [Example 8, 1,3-dilauryloxymethyl-5-ethyl-5-phenyl barbituric acid], in the data set with maximal electroshock, the “Time of peak activity” value worked out at 2 h.

On to `CCC1(CC)C(=O)N(COC)C(=O)N(COC)C1=O` [Example 9, 1,3-dimethoxymethyl-5,5-diethylbarbituric acid], for which the “Time of peak activity” value in the data set on Metrazol came out at 1 h.

On to `O=C1NC(=O)C(c2ccccc2)(c2ccccc2)N1` [diphenylhydantoin], for which the “Hypnotic activity, known or reported” value in data set [1] is “not hypnotic”. The Undesirable side effects entry in data set [2] was “hypertrophic gingivitis, megaloblastic anemia, toxic psychoses, and hirsutism”.

As to `CCC1(c2ccccc2)C(=O)NC(=O)NC1=O` [phenobarbital sodium, reference compound], in the data set on maximal electroshock (0.1 millimole/kg), the “Duration of anticonvulsant effect against maximal electroshock (in words)” value was “protection began to decrease after four hours and was nearly gone by eight hours”; the “Onset of protection against maximal electroshock” value was “less than 0.5 hour”.

Source of the values: patent US4339454A, “Alkoxymethyl and benzyloxymethyl phenobarbital therapeutic compositions” (priority 1978, dated 1982).
